According to publication PMC12292390, “Discovery of Dietary Plant Flavonols as Novel Potent Inhibitors Targeting DYRK1A Kinase” (Biomolecules, 2025):
Entries after “also recorded” stand apart in the source; their conditions may differ. Where two headings read alike, the source gives them in different places.

How the values were obtained:
DYRK1A = target: T1, DYRK1A (Homo sapiens, UniProt Q13627); assay: DYRK1A kinase inhibition assay (ADP-Glo Kinase Assay, DYRKtide substrate); format: biochemical; conditions: for DYRK1A inhibition (in words): at the concentrations tested;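 on all read-outs here: DYRKtide phosphorylation read out by luminescence, reaction run in Tris buffer pH 7.5 with MgCl2 and BSA, containing 1% DMSO or methanol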
T1 construct: The DNA encoding DYRK1A with a non-cleavable N-terminal MBP-tag was synthesized by Genscript; made in house; host or cells: E. coli BL21 (DE3) RIPL

[1] = ref ChemSpider, cited from earlier work; for LogP: ACD/LogP; for HBA (hydrogen bond acceptor number): first figure of HBA/HBD; for PSA: polar surface area; for HBD (hydrogen bond donor number): second figure of HBA/HBD
HeLa cells [2] = assay: Cell viability assay (WST-8); format: cell-based; conditions: 48 h treatment, WST-8, various concentrations
Description: (§1) HeLa cells were maintained in high-glucose Dulbecco’s Modified Eagle Medium (DMEM) supplemented with 10% (v/v) fetal bovine serum (FBS) at 37 °C in an incubator with 5% CO2.
HeLa cells were seeded at a density of 3.3 × 10^3 per well in 96-well plates and incubated overnight. Cells were then treated with various concentrations of flavonoids. After 48 h incubation, 10 μL of WST-8 reagent (ab228554, Abcam, Waltham, MA, USA) was added to each well and incubated for 1 h at 37 °C. Absorbance was measured at 460 nm using a microtiter plate reader (SpectraMax iD3, Molecular Devices, LLC., San Jose, CA, USA).

HeLa cells [3] = assay: Cell morphology analysis (microscopy); format: cell-based; conditions: 72 h
Description: as §1
HeLa cells were seeded at a density of 1.5 × 10^5 per well in 6-well plates and incubated overnight. Cells were then treated with different concentrations of flavonoids for 72 h. The final concentrations of methanol and DMSO were 4% and 1%, respectively. Morphology changes were observed using an Olympus IX83 (Evident Scientific, Tokyo, Japan) inverted microscope with a 40× objective.

[4] = ADP-Glo, 100 μM ATP, 1 mg/mL DYRKtide, 30 nM DYRK1A, 1 h room temperature, read-out: IC50

IC50 (DYRK1A; [4])	DYRK1A inhibition (in words) (DYRK1A; listed as apigenin)	SMILES	DYRK1A inhibition (in words) (DYRK1A)	LogP [1]	HBA (hydrogen bond acceptor number) [1]	PSA [1]	HBD (hydrogen bond donor number) [1]	cytotoxicity / cell viability of HeLa cells (in words) (HeLa cells [2])	cytotoxicity / cell viability of HeLa cells (in words) (HeLa cells [2]; listed as fisetin)	morphological changes in HeLa cells (HeLa cells [3]; 40 μM, 4% methanol)	IC50 (DYRK1A)	morphological changes in HeLa cells (HeLa cells [3]; 100 μM, 1% DMSO)	DYRK1A inhibition (in words) (DYRK1A; listed as kaempferide)
		O=c1c(O)c(-c2ccccc2)oc2ccc(O)cc12 [3,6-Dihydroxyflavone]	only weak inhibition; also recorded: low inhibition of kinase	3.64	4	67 Å^2	2						
149 nM		O=c1c(O)c(-c2ccc(O)c(O)c2)oc2cc(O)ccc12 [Fisetin]		2.52	6	107 Å^2	4	slight cytotoxicity effect	significantly reduced	clear apoptotic features, including cell shrinkage, detachment, and the formation of apoptosis bodies; also recorded: classic apoptosis features			
		COc1cc(-c2oc3cc(O)cc(O)c3c(=O)c2O)ccc1O [Isorhamnetin]	moderate activity	1.76	7	116 Å^2	4	minimal cytotoxicity		clear apoptotic features, including cell shrinkage, detachment, and the formation of apoptosis bodies; also recorded: classic apoptosis features	418 nM		
		O=c1c(O)c(-c2ccccc2)oc2cc(O)ccc12 [3,7-Dihydroxyflavone]	only weak inhibition; also recorded: low inhibition of kinase	3.27	4	67 Å^2	2						
		O=c1c(O)c(-c2ccccc2)oc2ccccc12 [3-Hydroxyflavone]	no detectable activity; also recorded: low inhibition of kinase	3.76	3	47 Å^2	1						
		O=C1c2c(O)cc(O)cc2O[C@H](c2cc(O)c(O)c(O)c2)[C@H]1O [Dihydromyricetin]	no detectable activity; also recorded: lack of activity	1.23	8	148 Å^2	6						
296 nM		O=c1c(O)c(-c2ccc(O)cc2)oc2cc(O)cc(O)c12 [Kaempferol, 3,5,7,4′-tetrahydroxyflavone]	moderate activity	2.05	6	107 Å^2	4	significant cytotoxicity; also recorded: significantly reduced; also recorded: significant cytotoxic and pro-apoptotic effects				significant elongation and shrinkage; also recorded: elongated morphology	
1020 nM	only weak inhibition	O=c1cc(-c2ccc(O)cc2)oc2cc(O)cc(O)c12 [Apigenin]	effective inhibition	3.04	5	87 Å^2	3						
798 nM		O=c1cc(-c2ccc(O)c(O)c2)oc2cc(O)cc(O)c12 [Luteolin]		2.40	6	107 Å^2	4						
738 nM		O=c1c(O)c(-c2ccc(O)c(O)c2)oc2cc(O)cc(O)c12 [Quercetin, reference compound]		2.08	7	127 Å^2	5						
3520 nM		COc1ccc(-c2oc3cc(O)cc(O)c3c(=O)c2O)cc1 [Kaempferide]	effective inhibition	2.74	6	96 Å^2	3						only weak inhibition; also recorded: low inhibition of kinase
478 nM		O=c1c(O)c(-c2ccc(O)cc2O)oc2cc(O)cc(O)c12 [Morin]		1.61	7	127 Å^2	5	slight cytotoxicity effect; also recorded: significantly reduced		clear apoptotic features, including cell shrinkage, detachment, and the formation of apoptosis bodies; also recorded: classic apoptosis features			
		O=C1C[C@@H](c2ccc(O)cc2)Oc2cc(O)cc(O)c21 [Naringenin]	only weak inhibition	3.19	5	87 Å^2	3						

SMILES	IC50 (DYRK1A; [4])	DYRK1A inhibition (in words) (DYRK1A; listed as apigenin)	DYRK1A inhibition (in words) (DYRK1A)	LogP [1]	HBA (hydrogen bond acceptor number) [1]	PSA [1]	HBD (hydrogen bond donor number) [1]	cytotoxicity / cell viability of HeLa cells (in words) (HeLa cells [2])	cytotoxicity / cell viability of HeLa cells (in words) (HeLa cells [2]; listed as fisetin)	morphological changes in HeLa cells (HeLa cells [3]; 40 μM, 4% methanol)	IC50 (DYRK1A)	morphological changes in HeLa cells (HeLa cells [3]; 100 μM, 1% DMSO)	DYRK1A inhibition (in words) (DYRK1A; listed as kaempferide)
O=c1c(O)c(-c2cc(O)c(O)c(O)c2)oc2cc(O)cc(O)c12 [Myricetin]	633 nM			2.11	8	148 Å^2	6						
